How the values were obtained:
Kmt2d+/βGeo mice = assay: Morris water maze (hippocampal memory) in the Kmt2d+/βGeo mouse model of Kabuki syndrome; format: in vivo; details: 10 mg/kg/day
Excerpt: Kmt2d^+/βGeo mice, also named Mll2Gt^(RRt024) Byg, were acquired from Bay Genomics (University of California). All experimental mice were on a mixed C57BL/6J and 129/SvEv background. Expected Mendelian ratios were observed when heterozygous animals were bred to wild-type. In heterozygous crosses, however, there was uniform embryonic lethality of homozygotes by ED 12, the earliest developmental stage assayed. For treatment with AR-42, mice were orally gavaged daily with drug (Selleck Chemicals, Houston, Tex.) solubilized in vehicle (0.5% methylcellulose, 0.1% Tween-80, water) or with vehicle alone. Drug delivery information was kindly provided by Drs. Chen and Kulp from Ohio State University (Huang et al. (2011) Mol. Pharmacol. 79:197-20619). Drug was administered for 14 days and mice were sacrificed on day 15. Morris water maze testing was initiated at day 7 and a dose of 10 mg/kg/day was used for these studies. For quantification of DCX positive cells, doses of 0, 5, 10 and 25 mg/kg/day were used. Genotyping was performed using primers B-GeoF-([…]; SEQ ID NO: 1) and B-GeoR-([…]; SEQ ID NO: 2) that are specific for the targeted allele and TcrdF-([…]; SEQ ID NO: 3) and TcrdR-([…]; SEQ ID NO: 4) that control for sufficient DNA concentration. Real-time PCR using the same primers allows discrimination between the heterozygous and homozygous state for the targeted allele. Maxillary protrusion was evaluated by ten investigators blinded to genotype and they were asked to rate maxillary protrusion on radiographs as either large (2) or small (1). […] All experiments were performed using mouse protocols approved by the Animal Care and Use Committee of Johns Hopkins University School of Medicine. The mouse protocols used for this study are in accordance with the guidelines used by the NIH for mouse care and handling.
Mice were placed in a 1.1 meter diameter tank filled with room temperature water dyed with non-toxic white paint. For analysis purposes, the tank was divided into four quadrants, with one quadrant containing a small platform submerged 1.5 cm beneath the water. On each day of training, mice were placed in the tank in a random quadrant facing away from the center and were allowed to swim until they found the platform and were left there for 30 seconds. […] Each mouse was given 4 trials per day (for 5 days) with no inter-trial interval and subsequently returned to its home cage. Latency to reach the platform was measured during each trial. The day after the final day of training, the platform was removed for a probe trial where mice were placed in the tank for 90 s. Average number of crossings of the platform's previous location was recorded. Visible/flagged platform training was also performed for 3 days either before the hidden platform or after the probe trial, where a visible flag was placed on the submerged platform, and the time for each mouse to reach the platform was measured for each 60 second trial, four of which were run in the same way as the hidden platform training. For all training and probe testing, data was recorded both manually and electronically with ANY-maze software (San Diego Instruments, San Diego, Calif.) when applicable. All data were collected and analyzed by an individual blinded to genotype and treatment group. Differences in the number of platform crossings during the probe trial were compared between groups with a Student's t-test with significance value set at P<0.05.

[1] = test system: H3K4me3 in the dentate gyrus GCL; assay: Immunofluorescence of H3K4me3 in the dentate gyrus GCL after oral AR-42; format: in vivo, mouse; details: 25 mg/kg/day oral, two weeks, from 20 weeks of age; vs untreated; FIG. 24A, 24B
Excerpt: Kmt2d^+/βGeo mice, also named Mll2Gt^(RRt024) Byg, were acquired from Bay Genomics (University of California). All experimental mice were on a mixed C57BL/6J and 129/SvEv background. Expected Mendelian ratios were observed when heterozygous animals were bred to wild-type. In heterozygous crosses, however, there was uniform embryonic lethality of homozygotes by ED 12, the earliest developmental stage assayed. For treatment with AR-42, mice were orally gavaged daily with drug (Selleck Chemicals, Houston, Tex.) solubilized in vehicle (0.5% methylcellulose, 0.1% Tween-80, water) or with vehicle alone. Drug delivery information was kindly provided by Drs. […] For quantification of DCX positive cells, doses of 0, 5, 10 and 25 mg/kg/day were used. […] Maxillary protrusion was evaluated by ten investigators blinded to genotype and they were asked to rate maxillary protrusion on radiographs as either large (2) or small (1). […]
Z-stack images of slides were taken at either 10× using Zeiss Axiovert 200 with 510-Meta confocal module (Carl Zeiss, Jena, GER) or 25× using Zeiss AxioExaminer with 710NLO-Meta multiphoton (Carl Zeiss, Jena, GER). From 10× pictures, the GCL was highlighted and fluorescent intensities for both DAPI and H3K4me3 were measured at the midpoint of the entire z-stack (Zen software, Carl Zeiss, Jena, GER) with the value for Kmt2d^+/+ animals set equal to one. […]

CC(C)[C@H](C(=O)Nc1ccc(C(=O)NO)cc1)c1ccccc1 [AR-42, (S)—N-hydroxy-4-(3-methyl-2-phenylbutanamido)benzamide]
functional studies outcome by dose (Kmt2d+/βGeo mice): most improvement in functional studies | escape latency during training, Kmt2d+/βGeo vs Kmt2d+/+ both on drug (Kmt2d+/βGeo mice; FIG. 12B): No significant difference is observed | escape latency during training, Kmt2d+/βGeo animals with vs without drug (Kmt2d+/βGeo mice; FIG. 12D): No significant difference is observed | frequency of platform crossing during probe trial, Kmt2d+/βGeo mice (Kmt2d+/βGeo mice; FIG. 25F): normalized | escape latency during training, Kmt2d+/+ animals with vs without drug (Kmt2d+/βGeo mice; P<0.01, FIG. 12C): significant difference | platform crossing during probe trial, both Kmt2d+/+ and Kmt2d+/βGeo mice (Kmt2d+/βGeo mice; greater response in Kmt2d+/βGeo, FIG. 25F): improved performance | H3K4me3 in the GCL [1]: increased H3K4 trimethylation

From patent US11357748B2, “Methods for treating mendelian disorders of the epigenetic machinery” (THE JOHNS HOPKINS UNIVERSITY, priority 2014, dated 2022)
